Assay [1] deals with MM074-R melanoma cell line. As to conditions: 10% growth reduction.
In assay [2] the test system is MM074 melanoma cell line. The experiment in a line: Cell proliferation, crystal violet assay, MM074. As to conditions: for IC10: 10% growth reduction.
The test system of assay [3] is MM043 melanoma cell line. The experiment in a line: Cell proliferation, crystal violet assay, MM043. The note with it: for IC10 / CI (combination index): MM043; for IC10: 10% growth reduction; for CI (combination index): PI3K inhibitor at IC10 in combination with vemurafenib.
Assay [4] has as its system MM074 melanoma cell line. The assay is described as follows: Apoptosis determination (annexin V), MM074. The format is cell-based, human.
Assay [5] deals with MM043 melanoma cell line. The assay is described as follows: Apoptosis determination (annexin V), MM043. In kind it is cell-based, human.
Assay [6] relates to key proteins of MAPK and p53/PI3K/AKT pathways. The assay is described as follows: Western blot analysis, MM074 cells. The format is cell-based, human. The note with it: MM074, Western blotting. On the procedure: (§1) Cells were plated in Petri dishes (3×10^6 cells/dish) in culture medium. […] Then, cells were exposed or not to effectors for 30 minutes or 24 hours. Cells were lysed using a detergent cocktail (M-PER Mammalian Extraction Buffer) supplemented with protease inhibitors (Halt Protease Inhibitor Cocktail) and phosphatase inhibitors (Halt Phosphatase Inhibitor Cocktail) (all from Pierce, Rockford, Ill., USA). Protein concentrations were determined by the BCA Protein Assay (Pierce) using bovine serum albumin as the standard. Equal amounts of extracted proteins (35 μg) were subjected to 10 or 12% SDS-PAGE and electrotransferred onto nitrocellulose membranes using iBlot® Dry Blotting System (Invitrogen, Life Technologies, Gent, Belgium). Immunodetections were performed using antibodies raised against ^V600EBRAF (VE1, 1/1000) (from Spring Bioscience, Pleasanton, Calif., USA), pBRAF (Ser 445) (1/1000), pCRAF (Ser 338) (1/1000), CRAF (1/1000), p110α (C73F8, 1/1000), PTEN (138G6, 1/1000), pAKT (Ser 473) (D9E, 1/500), AKT (40D4, 1/1000), p21 (12D1, 1/1000) and p53 Ser15 (16G8) (all from Cell Signaling Technology, Danvers, Mass., USA), BRAF (F-7, 1/200), pERK (Tyr 204) (E-4, 1/1000), ERK2 (C-14, 1/2000), p53 (DO-1, 1/200) and MDM2 (SMP14, 1/200) (all from Santa Cruz Biotechnology, Santa Cruz, Calif., USA), and MDM4 (8C6, 1/1000), […]-actin (C4, 1/5000) (from Millipore, Temecula, Calif., USA). Peroxidase-labeled anti-rabbit IgG antibody (1/5000) or peroxidase-labeled anti-mouse IgG antibody (1/5000) (both from Amersham Pharmacia Biotech, Roosendaal, The Netherlands) were used as secondary reagents to detect corresponding primary antibodies. […] Immunostaining signals were digitalized with a PC-driven LAS-3000 CCD camera (Fujifilm, Tokyo, Japan), using a software specifically designed for image acquisition (Image Reader, Raytest®, Straubenhardt, Germany). Immunoreactive band intensities were quantified using the software AIDA® Image Analyser 3.45 (Raytest®).

Assay [7] has the same test system. The experiment in a line: Western blot analysis, MM043 cells. The format is cell-based, human. The note with it: MM043, Western blotting. The method, then: as §1
Assay [8] has the same test system. The assay is described as follows: Western blot analysis, MM074-R cells. In kind it is cell-based, human. The note with it: Western blotting, 50 and 75 μM for 24 hours. The method, then:
as §1

In the next assay the test system is MM043 xenografts. The assay is described as follows: Human melanoma xenografts, MM043. The format is in vivo, mice. The method, then: (§2) Mice were injected subcutaneously (right and left flank) with 5×10^6 MM074 (vemurafenib sensitive), MM043 (with intrinsic resistance) or MM074-R cells (with acquired resistance) in 200 μl of 50% Matrigel (from Trevigen, Gaithersburg, Md.) in saline. When tumors reached 200 mm^3, mice were randomized into groups of 8 and daily intraperitoneally injected with vehicle, 45 mg/kg vemurafenib, 50 mg/kg PRIMA-1^Met or vemurafenib plus PRIMA-1^Met. […] Tumor volumes were calculated using the formula (L×W×W)/2 (Ji Z et al., 2013, Clin Cancer Res Off J Am Assoc Cancer Res. 19(16):4383-4391), in which L is the length and W is the width as measured with a vernier calliper.
(§3) The sensitive melanoma cells (MM074) xenografts were used as control. After subcutaneous cell injection, tumor growth was monitored to reach volumes of about 200 mm^3.

In another assay the test system is MM070 melanoma cell line. The experiment in a line: Cell proliferation, crystal violet assay, MM070. The format is cell-based. The note with it: Homo sapiens, V600E, read-out: IC50 (μM) vemurafenib. On the procedure: (§4) Cells were distained under running tap water and subsequently lysed with 0.2% Triton X-100 for 90 minutes (v/v in water).
(§5) The IC50 and IC10 values represent the inhibitory concentrations producing, respectively, 50% and 10% growth reduction and were calculated from dose response curves using GraphPad Prism software (GraphPad Software, La Jolla, Calif., USA).

In the next assay the test system is MM034 melanoma cell line. The experiment in a line: Cell proliferation, crystal violet assay, MM034. As to conditions: Homo sapiens, V600E, read-out: IC50 (μM) vemurafenib. The format is cell-based. The method, then:
as §4, §5

Another assay has as its system MM050 melanoma cell line. The assay is described as follows: Cell proliferation, crystal violet assay, MM050. In kind it is cell-based. As to conditions: Homo sapiens, V600E, read-out: IC50 (μM) vemurafenib. The method, then: as §4, §5
The subject of another assay is MM133 melanoma cell line. The experiment in a line: Cell proliferation, crystal violet assay, MM133. The format is cell-based. The note with it: Homo sapiens, V600K, read-out: IC50 (μM) vemurafenib. On the procedure: as §4, §5
(§6) CI values between 0.9 and 1.1 indicates an additive effect; values between 0.7 and 0.9, a moderate synergism; values lower than 0.7, a strong synergism; and antagonism is represented by CI values higher than 1.1.

The next assay deals with MM032 melanoma cell line. The experiment in a line: Cell proliferation, crystal violet assay, MM032. The format is cell-based. The note with it: Homo sapiens, V600E, read-out: IC50 (μM) vemurafenib. On the procedure: as §4, §5, §6
The subject of another assay is MM029 melanoma cell line. The assay is described as follows: Cell proliferation, crystal violet assay, MM029. In kind it is cell-based. The note with it: Homo sapiens, V600K, read-out: IC50 (μM) vemurafenib. On the procedure: as §4, §5, §6
For the next assay, the system named is MM054 melanoma cell line. The assay is described as follows: Cell proliferation, crystal violet assay, MM054. In kind it is cell-based. As to conditions: Homo sapiens, V600E, read-out: IC50 (μM) vemurafenib. On the procedure: as §4, §5, §6
Assay [9] deals with ERK and AKT phosphorylation. The assay is described as follows: Western blot, ERK and AKT phosphorylation in panel of vemurafenib-resistant lines. The format is cell-based, human. The method, then: Representative Western blots illustrating the evolution of (A) ERK and (B) AKT phosphorylation in melanoma cells exposed to increasing concentrations of vemurafenib (0.1, 1 and 10 μM) for 24 hours. Ratio of phosphorylated protein over total protein were calculated from densitometry evaluation.
Cells were plated in Petri dishes (3×10^6 cells/dish) in culture medium. […] Then, cells were exposed or not to effectors for 30 minutes or 24 hours. Cells were lysed using a detergent cocktail (M-PER Mammalian Extraction Buffer) supplemented with protease inhibitors (Halt Protease Inhibitor Cocktail) and phosphatase inhibitors (Halt Phosphatase Inhibitor Cocktail) (all from Pierce, Rockford, Ill., USA). Protein concentrations were determined by the BCA Protein Assay (Pierce) using bovine serum albumin as the standard. Equal amounts of extracted proteins (35 μg) were subjected to 10 or 12% SDS-PAGE and electrotransferred onto nitrocellulose membranes using iBlot® Dry Blotting System (Invitrogen, Life Technologies, Gent, Belgium). […] Immunostaining signals were digitalized with a PC-driven LAS-3000 CCD camera (Fujifilm, Tokyo, Japan), using a software specifically designed for image acquisition (Image Reader, Raytest®, Straubenhardt, Germany). Immunoreactive band intensities were quantified using the software AIDA® Image Analyser 3.45 (Raytest®).

The next assay has as its system MM074 xenografts. The experiment in a line: Human melanoma xenografts, MM074. The format is in vivo, mice. On the procedure: as §2, §3
Assay [10] has as its system MM074-R melanoma cell line. The assay is described as follows: cells. The note with it: Homo sapiens, read-out: IC50 (μM) vemurafenib.
For assay [11], the system named is panel of V600E/K BRAF melanoma cell lines. The experiment in a line: Cell proliferation and apoptosis in panel of V600E/K BRAF melanoma cell lines. The note with it: Homo sapiens.
For another assay, the system named is melanoma. The note with it: ipilimumab only group, 9 of 15 responders; cited from earlier work.
Setting [12] is: Homo sapiens, read-out: IC50 (μM) vemurafenib.

“Also recorded” adds a separate entry of the source. Like-named read-outs stand apart in the source and are kept apart here.

With `O=c1cc(N2CCOCC2)oc2c(-c3ccccc3)cccc12` [LY294002], the IC10 (in [1]; in the assay with MM074 melanoma cell line [2] (MM074); in the assay on MM043 melanoma cell line [3]) was 5000 nM in each case. In the assay with MM043 melanoma cell line [3], the “CI (combination index)” value was 0.56.

On to `COc1ccc(-c2cc3c(C)nc(N)nc3n([C@H]3CC[C@H](OCCO)CC3)c2=O)cn1` [PF-04691502], for which the “apoptosis (annexin V-positive cells)” value is “increased” in the assay on MM074 melanoma cell line [4] (MM074, PI3K inhibitor at IC10 in combination with vemurafenib, 2 days) and “significant increase in apoptosis” with MM043 melanoma cell line [5] (MM043, PI3K inhibitor at IC10 in combination with vemurafenib, 2 days). Moreover, the AKT phosphorylation entry in assay [6] and in assay [7] was “inhibited” in each case. The IC10 (in assay [1]; with MM074 melanoma cell line [2] (MM074); with MM043 melanoma cell line [3]) was 100 nM throughout. Besides, the cell proliferation entry with MM074 melanoma cell line [2] (MM074, PI3K inhibitor at IC10 in combination with increasing concentrations of vemurafenib) was “not significantly affected”. Further, the “CI (combination index)” value in the assay on MM043 melanoma cell line [3] stood at 0.64.

On to `COCC1(CO)C(=O)C2CCN1CC2` (centres unmarked) [PRIMA-1^Met, 2-hydroxymethyl-2-methoxymethylazabicyclo[2.2.2]octan-3-one], for which, in assay [6], the AKT phosphorylation result is “inhibition of p110α expression and AKT phosphorylation”; the PTEN expression result is “increase in PTEN levels”; the p110α expression entry is “inhibition of p110α expression and AKT phosphorylation”. Also, in [7], the AKT phosphorylation entry is “inhibited AKT phosphorylation; also recorded: inhibition of p110α expression and AKT phosphorylation”; the PTEN expression entry is “stimulated PTEN expression; also recorded: increase in PTEN levels”; the “p53 expression / p53 pathway” value is “restored p53 expression; also recorded: activation of the p53 pathway”; the p110α expression result is “inhibition of p110α expression and AKT phosphorylation”. Besides, in [8], the AKT phosphorylation result is “decrease of p110α expression and AKT phosphorylation”; the “p21 and PTEN levels” value was “upregulation of p21 and PTEN levels”; the “p53 expression and phosphorylation” value is “dose-dependent increase of p53 expression and phosphorylation”; the p110α expression result is “decrease of p110α expression and AKT phosphorylation”. Besides, in the assay on MM043 xenografts (after 20 days of treatment), the mean tumor volume is 1080 mm^3. In assay [1], this compound displayed an IC10 of 40000 nM.

As for `CCCS(=O)(=O)Nc1ccc(F)c(C(=O)c2c[nH]c3ncc(-c4ccc(Cl)cc4)cc23)c1F` [vemurafenib, N-(3-{[5-(4-chlorophenyl)-1H-pyrrolo[2,3-b]pyridin-3-yl]carbonyl}-2,4-difluorophenyl)propane-1-sulfonamide], the IC50 came out at 0.05 µM with MM070 melanoma cell line; 0.1 µM with MM034 melanoma cell line; 0.1 µM in the assay on MM050 melanoma cell line; 2 µM in the assay on MM133 melanoma cell line; 2 µM in the assay on MM032 melanoma cell line; 30 µM in the assay with MM029 melanoma cell line. Also, the IC50 was 40 µM with MM054 melanoma cell line; 20 µM in assay [10]; 0.1 µM in the assay with MM074 melanoma cell line [2] (setting [12]); 20 µM in the assay with MM043 melanoma cell line [3] (setting [12]); greater than 10000 nM in assay [11] (read-out: IC50, cell lines found to be resistant); no more than 2000 nM in assay [11] (read-out: IC50, cell lines found to be sensitive). The “apoptosis (annexin V-positive cells)” value is listed as “induces apoptosis” with MM074 melanoma cell line [4] (MM074, 2 days) and “no apoptosis is detected” in the assay on MM043 melanoma cell line [5] (MM043, 2 days). The values for the AKT phosphorylation result in [6] and in assay [7] were “strongly inhibited” and “neither AKT phosphorylation nor PTEN expression were affected”, respectively. The results for the PTEN expression result in assay [6] and in assay [7] were “concentration-dependent increase of PTEN expression” and “neither AKT phosphorylation nor PTEN expression were affected”, respectively. The “ERK phosphorylation (pERK)” value in assay [6] (24 hours) and in assay [7] (24 hours) was “similarly inhibited” in each case. Besides, the pERK result in assay [9] (all resistant lines, 24 hours) is on record as “similarly inhibited in a concentration-dependent manner”. Moreover, the pAKT result in assay [9] (resistant lines MM032, MM043 and MM133, 24 hours) is on record as “unaffected in three out of five resistant lines”. The average tumor volume in the assay on MM074 xenografts (28 days, 45 mg/kg daily intraperitoneally) is on record as roughly 190 mm3. Besides, the tumor growth entry in the assay on MM074 xenografts (as of day 4 after starting treatment) was “inhibited tumor growth”; with MM043 xenografts (45 mg/kg vemurafenib and/or 50 mg/kg PRIMA-1^Met daily IP), “did not significantly affected tumor growth”. In the assay on MM043 xenografts (after 28 days of treatment), this compound displayed a mean tumor volume of roughly 1130 mm^3.

Consider “ipilimumab: an antibody raised against CTLA-4 molecule on T-cells”, for which the “responders who maintained an objective response for at least 2 years” value with melanoma is 60%.

The values above are taken from patent publication US20170165240A1, “NEW STRATEGIES FOR TREATING MELANOMA” (Université Libre de Bruxelles, priority 2014, published 2017).
